According to patent US20240317826A1, “COMPOSITIONS AND METHODS FOR TREATING AND/OR I[…] AGENT FOR TREATING HIV-1 INFECTIONS” (priority 2021, published 2024):
Entries after “also recorded” stand apart in the source; their conditions may differ. Where two headings read alike, the source gives them in different places.

How the values were obtained:
[1] = system: reactivated HIV-1 from latent cells (J1.1); assay: Co-culture of PMA-reactivated latent J1.1 cells with CEM-GFP cells; type: cell-based; design: inhibition of infection of CEM-GFP cells by reactivated virus (green cells): dose or concentration left out as unconfirmed; conditions: J1.1 + CEM-GFP co-culture; for inhibition of infection of CEM-GFP cells by reactivated virus (green cells): PMA, images day 2 postinduction; for inhibition of virus spread, p24 levels in culture: p24 on day 5
Source text: FIG. 13A-FIG. 13C show staple peptides inhibit infection of reactivated HIV-1 from latent cells. […] Cells harboring latent virus (J1.1) were co-cultured with CEM-GFP cells in the presence and absence of stapled peptides. Addition of PMA reactivates HIV-1 from latent cells which infect CEM cells to induce expression of GFP. […] Images were taken on day 2 postinduction. […] Experiments was done in triplicates and the graph represents mean+/−SEM.
As a proof-of-concept to test if the stapled peptides inhibit spreading of the reactivated latent viruses, we used an in vitro cell line model of latency, J1.1 cells. J1.1 have a single latently integrated provirus which is activated using LRAs. We activated the latently integrated provirus by the addition of PMA and then mixed them with CEM-GFP cells in the cultures. Infection of CEM-GFP cells with virus produced from J1.1 upon reactivation turns the CEM-GFP T-cells green (FIGS. 13a and b right side panels). We tested the effect of addition of stapled peptides in this co-culture experiment (FIGS. 13a and b middle and left side panels). […] We furthermore determined the p24 released from the culture supernatant as a measure of the virus production in the presence and absence of stapled peptides (FIG. 13c).

[2] = target: T1, IN/INI1 complex (Human immunodeficiency virus type 1 group M subtype B, UniProt P04585); assay: co-IP in 293T cells: HA-INI1 bound to YFP-IN; type: cell-based, HIV-1
T1 construct: expressed in transfected cells; host or cells: 293T cells
Source text: Panels d-g show the input RNA and protein levels within transfected cells: the RT-PCR analysis of input TAR RNA levels (panel d); Immunoblot analysis of input HA-INI1 (panel e); input YFP-IN (panel f); and GAPDH level for loading control (panel g). Lane 1 is RNA-co-IP using isotype IgG control antibodies and lanes 2-7 are RNA-co-IP using anti-GFP antibodies to pull down IN. There is ˜1000 fold inhibition of RNA and INI1 binding to IN in the presence of SP-38 peptide (compare lane 6 to lane 5).
To determine if stapled peptides can inhibit interaction of IN with TAR RNA in cells, we carried out RNA-co-IP experiments (FIG. 8e). YFP-IN and TAR RNA were expressed by co-transfecting plasmids pYFP-fN, pLTIR-luc and pTat in 293T cells. Cells were treated with SP-38 or SP-83 (D225G mutant) peptides. After transfection, the cell lysates were treated with DNaseI and subjected to immunoprecipitation (IP) using α-GFP antibodies to pull down YFP-IN and associated complexes. RNA was separated from the immune complexes and subjected to RT-PCR to detect bound TAR RNA (FIG. 8e, panel a). Immunoblot analysis of bound proteins were carried out using: α-HA to detect bound HA-INI1 (FIG. 8e, panel b) and α-GFP to detect YFP-IN (FIG. 8e, panel c). RT-PCR of the RNA isolated from cell lysate was used as input control (FIG. 8e, panel d). Immunoblot analysis of total proteins from cell lysates as input control were carried out using α-HA to detect input HA-INI1 (FIG. 8e, panel e), α-GFP to detect input YFP-IN (FIG. 8e, panel f), and α-GAPDH to detect GAPDH as loading control (FIG. 8e, panel g). […] Expression of both GFP-IN and TAR RNA in the cells led to successful RNA-co-IP by α-GFP antibodies (FIG. 8e, lane 5).

[3] = system: HIV-1 virion morphogenesis; assay: TEM analysis of morphology of virions produced in the presence of stapled peptides; type: cell-based; conditions: ~200 virions each
Source text: FIG. 12A-FIG. 12C show effects of stapled peptides on virion morphogenesis and incorporation of INI1. […] The middle panel is the expanded version and the lower panel represents the carton of the two viral particles from the middle panel. Note the empty capsid shell and eccentric electron dense material, typical of morphologically defective virions. […] About 200 virions each were scored to quantify four different types of morphological forms—Conical (Co), Eccentric (Ec), Immature (Im) and Unclear (Uc).
To determine if the virions produced in the presence of stapled peptides have similar defect in virion morphogenesis, we carried out TEM analysis of the virions (˜200 each).

[4] = system: HIV-1 particle production; assay: Particle production (p24) in 293T cells transfected with pNL4-3 in the presence of stapled peptides; type: cell-based; conditions: p24 in virions and cell lysates
Method: FIG. 10A-FIG. 10B show the mechanism of HIV-1 inhibition by Stapled peptides. […] (1) Transfection of pNL4-3 plasmid in to 293T cells in the presence of stapled peptides and determine the particle production by analyzing p24 in the supernatant and cell lysates. (2) Virions produced are analyzed for their infectivity in the absence of stapled peptides. (3) Virions are subjected to Transmission Electron Microscopy (TEM) to determine the particle morphogenesis. (4) Purified and concentrated virions are subjected to Western blot analysis for the presence of INI1.
We hypothesized that INI1-derived Stapled peptides and drugs target IN and disrupt IN/RNA and IN/INI1 interactions. […] To test this hypothesis and to determine the mechanism of inhibition by stapled peptides, we tested the effect of stapled peptides on late events (production of HIV-1 particles and particle morphogenesis) and further tested the infectivity of particles that are produced (FIG. 10a).

[5] = system: HIV-1 virions; assay: Infectivity in CEM-GFP cells of virions produced in the presence of stapled peptides; type: cell-based; conditions: virions from 293T cells, 5 ng p24, infection of CEM-GFP cells in the absence of stapled peptides; GFP and p24
Method: FIG. 11A and FIG. 11B show infectivity of virions in CEM GFP cells produced in 293T cells that were treated with various stapled peptide (at 5 μM concentration) or DMSO. Equal amounts of virions treated with stapled peptides were used to infect CEM-GFP cells and the infected cells were imaged on days 1, 3, 6, 9 and 12 (FIG. 11A) and subjected to p24 ALphaLisa (FIG. 11B). FIG. 11C and FIG. 11D show Infectivity of the virions produced in the presence of increasing concentrations of stapled peptide during production in 293T cells. The 293T cells transfected with pNL4-3 were treated with increasing concentrations of stapled peptides and equal amount of virions from these cells were used to infect CEM-GFP cells. The infected cells were imaged on day 6 (FIG. 11C) and subjected to p24 ALphaLisa (FIG. 11D).
To determine the infectivity of virions produced in the presence of DMSO (DMSO-V), SP-38 (SP38-V), SP-80 (SP80-V) and SP83-D225G (SP83-V), we used equal amounts (5 ng p24) of virions to infect CEM-GFP cells in the absence of stapled peptides (FIGS. 11a and c). […] Replication of the virus was monitored by GFP expression in […] and also by assaying for the production of p24 in the culture supernatants (FIGS. 11a-d).

Substance | inhibition of infection of CEM-GFP cells by reactivated virus (green cells) [1] | inhibition of virus spread, p24 levels in culture [1] | inhibition of IN/INI1 complex formation within cells [2] | inhibition of IN/INI1 complex formation within cells ([2]; listed as SP83 (D225G)) | virion particle morphology [3] | effect on particle production [4] | infectivity of virions produced in the presence of peptide [5] | inhibition of INI1 binding to IN ([2]; immunoblot of bound HA-INI1) [fold]
lys-Leu-Met-Thr-Pro-Glu-Met-Phe-S5-Glu-Ile-Leu-S5-Cys-Gly-Leu-Asn [SP83] | not | not | not | does not inhibit | – | – | – | –
lys-Leu-Met-Thr-Pro-Glu-Met-Phe-S5-Glu-Ile-Leu-S5-Cys-Asp-Leu-Asn [SP38] | inhibited the infection | inhibited the virus spread; also recorded: inhibits p24 levels in induced and uninduced conditions | potently inhibits | – | large number of morphologically defective “eccentric” particles and very few conical capsids; also recorded: increased proportion of eccentric virions | did not affect | defective for infection; also recorded: produced non-infection virions | ~1000
